The source of these data is the supplement of paper PMC4862054.

Assay [1] has as its system MDA-MB-468. The assay can be described thus: normalised viability (% of control), CellTiter-Blue; higher = more viable cells (about 100 = DMSO control). The following applies: incubation time: 72 h. A digest of the protocol: (§1)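 Each value is normalised viability at a single listed concentration of the series. Breast cancer cell lines in 384-well plates were incubated 72 h with compound and read by CellTiter-Blue fluorescence at 560/590 nm, with vehicle set to 100 and a positive kill control to 0 on every plate.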
A general note: Resazurin is reduced to fluorescent resorufin, in cell work by metabolically active cells.

Assay [2] relates to MDA-MB-453. The description is as above. Particulars: incubation time: 72 h. The method, boiled down: as §1
The subject of assay [3] is CAL-51. Described as above. Particulars: incubation time: 72 h. A digest of the protocol: as §1
The subject of assay [4] is BT-549. Described as above. Particulars: incubation time: 72 h. The method, boiled down:
as §1

For assay [5], the system named is SK-BR-3. Described as above. Particulars: incubation time: 72 h. A digest of the protocol:
as §1

Assay [6] deals with CAL-120. The assay is described as above. The following applies: incubation time: 72 h. A digest of the protocol: as §1
Another assay concerns HDQ-P1. The assay can be described thus: normalised viability (% of control), CellTiter-Blue; higher = more viable cells (about 100 = DMSO control). The following applies: 10 nM; incubation time: 72 h. Here is the method: (§2)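 DSRT, CellTiter-Blue viability, 72 h incubation. Signal is normalised to DMSO and benzethonium chloride controls. Value is the normalised response at dose 3.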

In a further assay the test system is MDA-MB-231. Described as above. The following applies: 100 nM; incubation time: 72 h. As for the experimental part:
as §2

The test system of a further assay is DU-4475. Described as above. Particulars: 10 nM; incubation time: 72 h. Here is the method: as §2
The next assay concerns HCC1143. The assay is described as above. The following applies: 100 nM; incubation time: 72 h. Here is the method:
as §2

A further assay relates to MDA-MB-436. Described as above. The following applies: 100 nM; incubation time: 72 h. Here is the method: as §2
Assay [7] deals with MDA-MB-468. The assay is described as above. The following applies: 100 nM; incubation time: 72 h. Here is the method:
as §2

In a further assay the test system is Hs578T. The description is as above. The following applies: 100 nM; incubation time: 72 h. As for the experimental part: as §2
For assay [8], the system named is MDA-MB-453. The description is as above. The following applies: 10 nM; incubation time: 72 h. Here is the method: as §2
The next assay relates to HCC1937. The description is as above. Particulars: 100 nM; incubation time: 72 h. Here is the method:
as §2

Assay [9] deals with CAL-51. Described as above. The following applies: 10 nM; incubation time: 72 h. Here is the method: as §2
Assay [10] relates to BT-474. Described as above. The following applies: 100 nM; incubation time: 72 h. As for the experimental part:
as §2

The subject of assay [11] is BT-549. The assay is described as above. The following applies: 100 nM; incubation time: 72 h. Here is the method: as §2
Assay [12] concerns SK-BR-3. The assay is described as above. Particulars: 100 nM; incubation time: 72 h. Here is the method: as §2
The next assay relates to HCC1599. The assay is described as above. Particulars: 100 nM; incubation time: 72 h. Here is the method: as §2
Another assay has as its system CAL-148. Described as above. Particulars: 10 nM; incubation time: 72 h. Here is the method:
as §2

The subject of a further assay is CAL-85-1. The description is as above. The following applies: 10 nM; incubation time: 72 h. As for the experimental part:
as §2

The subject of assay [13] is CAL-120. The assay is described as above. The following applies: 100 nM; incubation time: 72 h. Here is the method: as §2
For a further assay, the system named is MFM-223. The assay is described as above. The following applies: 100 nM; incubation time: 72 h. As for the experimental part:
as §2

For assay [14], the system named is CAL-51. The assay can be described thus: normalised response (% of control), CellTiter-Glo; higher = more viable cells (100 = DMSO, 0 = benzethonium chloride kill control). Particulars: incubation time: 72 h. A digest of the protocol:
(§3)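 Values are normalised signals, each belonging to one concentration of the series. Breast cancer cells (20 µl suspension) were seeded into 384-well plates with compound at 5 concentrations in 10-fold steps over a compound-specific 10,000-fold range and incubated 72 h. Readouts were CellTox Green fluorescence (485/520 nm), then CellTiter-Glo luminescence after 10 min at room temperature, with each plate set to 0.1 % DMSO as 100 and a positive kill control as 0.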

Assay [15] deals with BT-474. The assay is described as above. The following applies: incubation time: 72 h. A digest of the protocol: as §3

For `CC(=O)c1c(C)c2cnc(Nc3ccc(N4CCNCC4)cn3)nc2n(C2CCCC2)c1=O`, the normalised viability with MDA-MB-468 [1] (10 nM) was 115%; with MDA-MB-468 [1] (1000 nM), 99.8%; in the assay with MDA-MB-468 [1] (10000 nM), 85.3%; with MDA-MB-453 [2] (3 nM) it was 112%; with MDA-MB-453 [2] (30 nM) it was 104%; in the assay on MDA-MB-453 [2] (100 nM), 79.1%. For the same molecule, the normalised viability with CAL-51 [3] (3 nM) stood at 106%; in the assay on CAL-51 [3] (30 nM) it was 99.8%; in the assay with CAL-51 [3] (100 nM), 93.7%; with BT-549 [4] (10 nM), 101%; with BT-549 [4] (1000 nM), 109%; with BT-549 [4] (10000 nM), 85.2%. The normalised viability in the assay with SK-BR-3 [5] (10 nM) is 100%; in the assay with SK-BR-3 [5] (1000 nM), 110%; with SK-BR-3 [5] (10000 nM) it was 63.5%; with CAL-120 [6] (10 nM) it was 79.4%; in the assay on CAL-120 [6] (1000 nM) it was 65.2%; in the assay with CAL-120 [6] (10000 nM), 57.4%. Further, the normalised viability in the assay with HDQ-P1 was found to be 108%; in the assay on MDA-MB-231, 88.5%; in the assay with DU-4475, 107%; in the assay on HCC1143, 82.3%; in the assay with MDA-MB-436 it was 111%; in the assay with MDA-MB-468 [7], 105%. Moreover, the normalised viability turned out to be 66.3% in the assay with Hs578T; 104% in the assay on MDA-MB-453 [8]; 97.2% in the assay with HCC1937; 107% in the assay with CAL-51 [9]; 95.7% in the assay on BT-474 [10]; 108% with BT-549 [11]. Also, the normalised viability in the assay with SK-BR-3 [12] is 78%; in the assay with HCC1599, 88.2%; in the assay with CAL-148, 91.3%; with CAL-85-1, 102%; with CAL-120 [13], 73.8%; with MFM-223, 88.1%.

With `Cn1cc(C2=Nc3cc(NC(=O)C(N)C4CCCCC4)cc4c3C2=CNNC4=O)cn1` (configuration not stated) (1000 nM), the normalised response with CAL-51 [14] came to 81.6%; in the assay with BT-474 [15], 68.5%.

For the molecule `COc1cc2c(cc1O)CC[C@@H]1[C@@H]2CC[C@]2(C)[C@@H](O)CC[C@@H]12` [2-methoxyestradiol] (1000 nM), the normalised response was 92.9% with CAL-51 [14] and 68.9% with BT-474 [15].

In the case of `Cc1sc2c(c1C)C(c1ccc(Cl)cc1)=N[C@@H](CC(=O)OC(C)(C)C)c1nnc(C)n1-2` [(+)JQ1] (1000 nM), the normalised response in the assay on CAL-51 [14] is 103%; with BT-474 [15] it was 69.9%.

`Oc1ncnc2[nH]ncc12` [Allopurinol]: the normalised viability was 102% in the assay with MDA-MB-468 [1] (10 nM); 99.7% in the assay on MDA-MB-468 [1] (1000 nM); 103% with MDA-MB-468 [1] (10000 nM); 115% with MDA-MB-453 [2] (3 nM); 105% in the assay with MDA-MB-453 [2] (30 nM); 105% in the assay with MDA-MB-453 [2] (100 nM). In addition, the normalised viability in the assay on CAL-51 [3] (3 nM) is 98.2%; in the assay on CAL-51 [3] (30 nM), 91.9%; in the assay on CAL-51 [3] (100 nM), 94.8%; in the assay on BT-549 [4] (10 nM) it was 105%; in the assay with BT-549 [4] (1000 nM), 86.6%; in the assay on BT-549 [4] (10000 nM) it was 99.1%. The normalised viability with SK-BR-3 [5] (10 nM) was 100%; in the assay on SK-BR-3 [5] (1000 nM), 103%; with SK-BR-3 [5] (10000 nM) it was 105%; in the assay on CAL-120 [6] (10 nM), 120%; in the assay with CAL-120 [6] (1000 nM) it was 109%; with CAL-120 [6] (10000 nM), 108%. Moreover, the normalised viability in the assay on HDQ-P1 was found to be 106%; in the assay with MDA-MB-231, 109%; in the assay with DU-4475, 104%; with HCC1143, 113%; in the assay with MDA-MB-436, 108%; with MDA-MB-468 [7], 105%. Also, the normalised viability with Hs578T amounted to 94%; in the assay with MDA-MB-453 [8] it was 110%; with HCC1937, 94.5%; with CAL-51 [9] it was 90%; in the assay with BT-474 [10], 106%; in the assay with BT-549 [11], 87.3%. The normalised viability with SK-BR-3 [12] was 103%; in the assay with HCC1599, 98.5%; in the assay on CAL-148, 108%; in the assay on CAL-85-1, 102%; in the assay with CAL-120 [13] it was 107%; in the assay with MFM-223, 91.2%.

In the case of `Oc1ncnc2[nH]ncc12` [Allopurinol] (1000 nM), the normalised response with CAL-51 [14] was determined as 123%; in the assay with BT-474 [15], 101%.

As for `O=C1CN2Cc3c(ccc(Cl)c3Cl)N=C2N1` [Anagrelide] (1000 nM), the normalised response amounted to 88.4% in the assay with CAL-51 [14] and 90.7% with BT-474 [15].

In the case of `Nc1ncn([C@@H]2O[C@H](CO)[C@@H](O)[C@H]2O)c(=O)n1` [Azacitidine] (1000 nM), the normalised response in the assay with CAL-51 [14] is 119%; in the assay with BT-474 [15] it was 96.7%.

With `O=NN(CCCl)C(=O)NCCCl` [Carmustine], the normalised viability was determined as 107% in the assay with MDA-MB-468 [1] (10 nM); 102% in the assay on MDA-MB-468 [1] (1000 nM); 103% with MDA-MB-468 [1] (10000 nM); 109% with MDA-MB-453 [2] (3 nM); 105% in the assay with MDA-MB-453 [2] (30 nM); 110% in the assay with MDA-MB-453 [2] (100 nM). Besides, the normalised viability with CAL-51 [3] (3 nM) was determined as 108%; in the assay with CAL-51 [3] (30 nM) it was 107%; with CAL-51 [3] (100 nM), 99.4%; in the assay on BT-549 [4] (10 nM) it was 88.2%; in the assay with BT-549 [4] (1000 nM) it was 89.9%; in the assay with BT-549 [4] (10000 nM) it was 103%. Besides, the normalised viability with SK-BR-3 [5] (10 nM) was 100%; in the assay with SK-BR-3 [5] (1000 nM), 123%; with SK-BR-3 [5] (10000 nM) it was 96.9%; with CAL-120 [6] (10 nM), 98.9%; in the assay on CAL-120 [6] (1000 nM), 83%; with CAL-120 [6] (10000 nM), 82.5%. The normalised viability with HDQ-P1 is 105%; in the assay with MDA-MB-231 it was 90.8%; in the assay with DU-4475, 108%; in the assay with HCC1143 it was 91.8%; in the assay on MDA-MB-436 it was 119%; in the assay on MDA-MB-468 [7], 123%. Also, the normalised viability in the assay on Hs578T is 96.3%; in the assay with MDA-MB-453 [8], 109%; with HCC1937, 87.8%; in the assay on CAL-51 [9] it was 105%; in the assay on BT-474 [10] it was 111%; with BT-549 [11], 111%. Further, the normalised viability with SK-BR-3 [12] is 102%; with HCC1599, 114%; with CAL-148 it was 91.5%; in the assay on CAL-85-1 it was 95%; in the assay with CAL-120 [13] it was 91.3%; in the assay with MFM-223, 83.8%.

As to `O=NN(CCCl)C(=O)NCCCl` [Carmustine] (1000 nM), the values for the normalised response with CAL-51 [14] and with BT-474 [15] were 121% and 95.5%, respectively.
